Measured values taken from US12501900B2, “Heterocyclyl pyridazine as fungicidal compounds” (Bayer Aktiengesellschaft, priority 2018, dated 2025).

Assays:
Botrytis cinerea = test: In vivo preventive test on Botrytis cinerea (grey mould); conditions: 500 ppm of active ingredient, preventive spray on gherkin or cabbage, evaluated 4 to 5 days after inoculation, read-out: efficacy
Experimental: Example: In Vivo Preventive Test on Botrytis cinerea (Grey Mould)
(§1) • Solvent: 5% by volume of Dimethyl sulfoxide • 10% by volume of Acetone • Emulsifier: 1 μl of Tween® 80 per mg of active ingredient
(§2) The active ingredients were made soluble and homogenized in a mixture of Dimethyl sulfoxide/Acetone//Tween®80 and then diluted in water to the desired concentration.
The young plants of gherkin or cabbage were treated by spraying the active ingredient prepared as described above. Control plants were treated only with an aqueous solution of Acetone/Dimethyl sulfoxide/Tween® 80.
After 24 hours, the plants were contaminated by spraying the leaves with an aqueous suspension of Botrytis cinerea spores. The contaminated gherkin plants were incubated for 4 to 5 days at 17° C. and at 90% relative humidity. The contaminated cabbage plants were incubated for 4 to 5 days at 20° C. and at 100% relative humidity.
The test was evaluated 4 to 5 days after the inoculation. 0% means an efficacy which corresponds to that of the control plants while an efficacy of 100% means that no disease was observed.

Pyrenophora teres = test: In vivo preventive test on Pyrenophora teres (net blotch on barley); conditions: 240 h, 500 ppm of active ingredient, preventive spray on barley, evaluated 10 days after inoculation, read-out: efficacy
Experimental: Example: In Vivo Preventive Test on Pyrenophora teres (Net Blotch on Barley)
as §1, §2
The young plants of barley were treated by spraying the active ingredient prepared as described above. Control plants were treated only with an aqueous solution of Acetone/Dimethyl sulfoxide/Tween®80.
After 24 hours, the plants were contaminated by spraying the leaves with an aqueous suspension of Pyrenophora teres spores. The contaminated barley plants were incubated for 48 hours at 20° C. and at 100% relative humidity and then for 8 days at 20° C. and at 70-80% relative humidity.
The test was evaluated 10 days after the inoculation. 0% means an efficacy which corresponds to that of the control plants while an efficacy of 100% means that no disease was observed.

[1] = Measurement of LogP values by HPLC on reversed phase columns (EEC directive 79/831 Annex V.A8), methods [a], [b], [c]; assay type: physicochemical; conditions: HPLC on reversed phase column, method [a]; read-out: Log P
Experimental: Measurement of Log P values as provided herein was performed according to EEC directive 79/831 Annex V.A8 by HPLC (High Performance Liquid Chromatography) on reversed phase columns with the following methods: • ^[a]
If more than one Log P value is available within the same method, all the values are given and separated by “+”.
Lambda-max-values were determined using UV-spectra from 200 nm to 400 nm and the peak values of the chromatographic signals

Alternaria brassicae = test: In vivo preventive test on Alternaria brassicae (leaf spot on radish or cabbage); conditions: 144 h, 500 ppm of active ingredient, preventive spray on radish or cabbage, evaluated 6 days after inoculation, read-out: efficacy
Experimental: Example: In Vivo Preventive Test on Alternaria brassicae (Leaf Spot on Radish or Cabbage)
as §1, §2
The young plants of radish or cabbage were treated by spraying the active ingredient prepared as described above. Control plants were treated only with an aqueous solution of Acetone/Dimethyl sulfoxide/Tween® 80.
After 24 hours, the plants were contaminated by spraying the leaves with an aqueous suspension of Alternaria brassicae spores. The contaminated radish or cabbage plants were incubated for 6 days at 20° C. and at 100% relative humidity.
The test was evaluated 6 days after the inoculation. 0% means an efficacy which corresponds to that of the control plants while an efficacy of 100% means that no disease was observed.

Sphaerotheca fuliginea = test: In vivo preventive test on Sphaerotheca fuliginea (powdery mildew on cucurbits); conditions: Podosphaera fuliginea, 192 h; 500 ppm of active ingredient; preventive spray on gherkin; evaluated 8 days after inoculation; read-out: efficacy
Experimental: Example: In Vivo Preventive Test on Sphaerotheca fuliginea (Powdery Mildew on Cucurbits)
as §1, §2
The young plants of gherkin were treated by spraying the active ingredient prepared as described above. Control plants were treated only with an aqueous solution of Acetone/Dimethyl sulfoxide/Tween® 80.
After 24 hours, the plants were contaminated by spraying the leaves with an aqueous suspension of Sphaerotheca fuliginea spores. The contaminated gherkin plants were incubated for 8 days at 20° C. and at 70-80% relative humidity.
The test was evaluated 8 days after the inoculation. 0% means an efficacy which corresponds to that of the control plants while an efficacy of 100% means that no disease was observed.

[2] = tested on: Colletotrichum lindemuthianum; test: Colletotrichum lindemuthianum in vitro cell test; assay type: cell-based; conditions: 144 h, 20 ppm of active ingredient, liquid culture, 6 days incubation, read-out: efficacy (inhibition of fungal growth)
Experimental: (§3) Example: Colletotrichum lindemuthianum In Vitro Cell Test • Solvent: DMSO • Culture medium: 14.6 g anhydrous D-glucose (VWR), 7.1 g Mycological Peptone (Oxoid), 1.4 g granulated Yeast Extract (Merck), QSP 1 liter • Inoculum: spores suspension Fungicides were solubilized in DMSO and the solution used to prepare the required range of concentrations. The final concentration of DMSO used in the assay was ≤1%. A spore suspension of C. lindemuthianum was prepared and diluted to the desired spore density. Fungicides were evaluated for their ability to inhibit spores germination and mycelium growth in liquid culture assay. The compounds were added in the desired concentration to the culture medium with spores. After 6 days incubation, fungi-toxicity of compounds was determined by spectrometric measurement of mycelium growth. Inhibition of fungal growth was determined by comparing the absorbance values in wells containing the fungicides with the absorbance in control wells without fungicides.

Alternaria alternata = Alternaria alternata in vitro cell test; assay type: cell-based; conditions: 120 h, 20 ppm of active ingredient, liquid culture, 5 days incubation, read-out: efficacy (inhibition of fungal growth)
Experimental: as §3, with “Example: Alternaria alternata” for “Example: Colletotrichum lindemuthianum”, “of A. alternata” for “of C. lindemuthianum”, “inhibit spore” for “inhibit spores”, “After 5” for “After 6”

[3] = tested on: Colletotrichum lindemuthianum; test: In vivo preventive test on Colletotrichum lindemuthianum (leaf spot on bean); conditions: 168 h, 500 ppm of active ingredient, preventive spray on bean, evaluated 7 days after inoculation, read-out: efficacy
Experimental: Example: In Vivo Preventive Test on Colletotrichum lindemuthianum (Leaf Spot on Bean)
as §1, §2
The young plants of bean were treated by spraying the active ingredient prepared as described above. Control plants were treated only with an aqueous solution of Acetone/Dimethyl sulfoxide/Tween® 80.
After 24 hours, the plants were contaminated by spraying the leaves with an aqueous suspension of Colletotrichum lindemuthianum spores. The contaminated bean plants were incubated for 24 hours at 20° C. and at 100% relative humidity and then for 6 days at 20° C. and at 90% relative humidity.
The test was evaluated 7 days after the inoculation. 0% means an efficacy which corresponds to that of the control plants while an efficacy of 100% means that no disease was observed.

Septoria tritici [4] = test: Septoria tritici in vitro cell test; assay type: cell-based; conditions: Zymoseptoria tritici, 168 h; 20 ppm of active ingredient; liquid culture, 7 days incubation; read-out: efficacy (inhibition of fungal growth)
Experimental: Example: Septoria tritici In Vitro Cell Test • Solvent: DMSO • Culture medium: 14.6 g anhydrous D-glucose (VWR), 7.1 g Bacteriological Peptone (Oxoid), • 1.4 g granulated Yeast Extract (Merck), QSP 1 liter • Inoculum: spore suspension Fungicides were solubilized in DMSO and the solution used to prepare the required range of concentrations. The final concentration of DMSO used in the assay was ≤1%. A spore suspension of Septoria tritici was prepared and diluted to the desired spore density. Fungicides were evaluated for their ability to inhibit spore germination and mycelium growth in liquid culture assay. The compounds were added in the desired concentration to the culture medium with spores. After 7 days incubation, fungi-toxicity of compounds was determined by spectrometric measurement of mycelium growth. Inhibition of fungal growth was determined by comparing the absorbance values in wells containing the fungicides with the absorbance in control wells without fungicides.

Septoria tritici [5] = test: In vivo preventive test on Septoria tritici (leaf spot on wheat); conditions: Zymoseptoria tritici, in Triticum aestivum; 500 ppm of active ingredient; preventive spray on wheat; evaluated 19 days after inoculation; read-out: efficacy
Experimental: Example: In Vivo Preventive Test on Septoria tritici (Leaf Spot on Wheat)
as §1, §2
The young plants of wheat were treated by spraying the active ingredient prepared as described above. Control plants were treated only with an aqueous solution of Acetone/Dimethyl sulfoxide/Tween®80.
After 24 hours, the plants were contaminated by spraying the leaves with an aqueous suspension of Septoria tritici spores. The contaminated wheat plants were incubated for 72 hours at 17° C. and at 100% relative humidity and then for 15 days at 20° C. and at 90% relative humidity.
The test was evaluated 19 days after the inoculation. 0% means an efficacy which corresponds to that of the control plants while an efficacy of 100% means that no disease was observed.

Row | SMILES | pest or weed control at 500 ppm (Botrytis cinerea) | pest or weed control at 500 ppm (Pyrenophora teres) | chromatographic logP [1] | pest or weed control at 500 ppm (Alternaria brassicae) | pest or weed control at 500 ppm (Sphaerotheca fuliginea) | inhibition at 20 ppm [2] | inhibition at 20 ppm (Alternaria alternata) | pest or weed control at 500 ppm [3] | inhibition at 20 ppm (Septoria tritici [4]) | pest or weed control at 500 ppm (Septoria tritici [5])
1 | Cc1cc(C2=NOCC(c3cn(C)c4ccccc34)N2)c(Oc2cccc(C(F)(F)F)c2)nn1 (racemic) [I-011, rac-5-(1-methylindol-3-yl)-3-[6-methyl-3-[3-(trifluoro-methyl)phenoxy]pyridazin-4-yl]-5,6-dihydro-4H-1,2,4-oxadiazine] | 90 to 100% | 70 to 79% | 3.23 | 90 to 100% | 90 to 100% | 90 to 100% | 90 to 100% | 80 to 89% | 90 to 100% | –
2 | FC(F)(F)c1cccc(Oc2nnc(Cl)cc2C2=NOC[C@H](Cc3ccccc3)N2)c1 (single isomer, unassigned) [I-070] | 90 to 100% | 90 to 100% | 3.81 | 90 to 100% | 90 to 100% | 90 to 100% | 90 to 100% | 90 to 100% | 80 to 89% | –
3 | CC(=O)c1cc(C2=NOCC(Cc3ccc(C)cc3C)N2)c(Oc2cccc(C(F)(F)F)c2)nn1 (racemic) [I-042, 1-[5-[rac-5-[(2,4-dimethylphenyl)methyl]-5,6-dihydro-4H-1,2,4-oxadiazin-3-yl]-6-[3-(trifluoromethyl)phenoxy]pyridazin-3-yl]ethanone] | 90 to 100% | 90 to 100% | 4.27 | 90 to 100% | 90 to 100% | 90 to 100% | 90 to 100% | 90 to 100% | – | 90 to 100%
4 | Cc1ccc(CC2CON=C(c3c(Oc4cccc(C(F)(F)F)c4)nnc(Cl)c3-c3ccncc3)N2)c(C)c1 (racemic) [I-088, rac-3-[6-chloro-5-(4-pyridyl)-3-[3-(trifluoro-methyl)phenoxy]pyridazin-4-yl]-5-[(2,4-dimethylphenyl)methyl]-5,6-dihydro-4H-1,2,4-oxadiazine] | 90 to 100% | 90 to 100% | 3.76 | 90 to 100% | 90 to 100% | 90 to 100% | 90 to 100% | 90 to 100% | – | 70 to 79%
5 | FC(F)(F)c1cccc(Oc2nnc(Cl)cc2C2=NCC(Cc3ccc(Cl)cc3Cl)N2)c1 (racemic) [I-007, 6-chloro-4-[rac-5-[(2,4-dichlorophenyl)methyl]-4,5-dihydro-1H-imidazol-2-yl]-3-[3-(trifluoromethyl)phenoxy]pyridazine] | 90 to 100% | – | 2.39 | 90 to 100% | – | 90 to 100% | 90 to 100% | – | 90 to 100% | –
6 | Cc1ccc(CC2CON=C(c3cc(C)nnc3Oc3cccc(Cl)c3F)N2)c(Cl)c1 (centres unmarked) [I-302] | 90 to 100% | 90 to 100% | – | 90 to 100% | 90 to 100% | 90 to 100% | 90 to 100% | 90 to 100% | 90 to 100% | 90 to 100%
7 | COc1ccc(C2NC(c3cc(C)nnc3Oc3cccc(C(F)(F)F)c3)=NOC2(F)F)cc1 (racemic) [I-154, rac-6,6-difluoro-5-(4-methoxyphenyl)-3-[6-methyl-3-[3-(trifluoromethyl)phenoxy]pyridazin-4-yl]-4,5-dihydro-1,2,4-oxadiazine] | 90 to 100% | 90 to 100% | 3.6 | 90 to 100% | 90 to 100% | 90 to 100% | 90 to 100% | 90 to 100% | – | –
